Patent EP0769958B1, “INHIBITORS OF LEUKOCYTE ADHESION” (ATHENA NEUROSCIENCES, INC., priority 1994, dated 1996)
Entries after “also recorded” stand apart in the source; their conditions may differ. Bridge positions count the residues as written; N and C are the ends. Ends that are not written are not given here. Peptide text beside a SMILES is read from it.

Key:
VLA-4 = target: T1, VLA-4 (Homo sapiens, UniProt P05556+P13612); assay: Jurkat interaction with soluble VCAM-1 (sVCAM-1-IgG), FACS assay of Example 6; type: cell-based; conditions: for inhibition of interaction of sVCAM-1-IgG with Jurkat cells: Mn+2 and 15/7 present
T1 construct: endogenous in cells; host or cells: Jurkat cells
From the text: VCAM-1 was expressed as a soluble fusion protein. The construct expressed the seven extracellular domains of VCAM-1 on the N-terminus, and the human IgG1 heavy chain constant region on the C-terminus. Interaction of the soluble construct with Jurkat cells was monitored by standard FACS analysis, using a fluorescently labeled antibody directed against the construct's human IgG tail as a marker.
The activity of VLA-4 can be regulated. 15/7 is a monoclonal antibody that recognizes an activated conformation of VLA-4 and locks the molecule in the active state, thereby enhancing VLA-4-mediated cell adhesion.
Peptides of different length, and with various amino acid substitutions were synthesized based on the sequence of the CDR3 region of the antibody 21/6 (EGYYGNYGVYA) (SEQ ID No. 4). The peptides were then tested for their ability to inhibit Jurkat interaction with sVCAM-1-IgG in the FACS assay described in Example 6. IC50 values were determined for each peptide using this assay.

VLA-4 integrin = target: T2, VLA-4 integrin (Homo sapiens, UniProt P05556+P13612); assay: Adhesion of Jurkat cells to peptide-BSA conjugates coated onto plastic; type: cell-based; conditions: peptide conjugated to carrier protein, exposed to the plastic at 3 µg/mL; Figure 1
T2 construct: endogenous in cells; host or cells: Jurkat cells
Protocol: The peptide used in this example was synthesized based on the sequence of the anti-α4 integrin antibody 21/6 (CGGEGYYGNYGVYA, SEQ ID No. 1). In this example the peptide was conjugated to a large carrier protein via the linker region that was synthesized as part of the peptide itself (in italics). The conjugated peptide was then coated onto plastic, and the ability of the conjugate to support cell adhesion was tested. This method is based on a report by Wayner and Kovach^40.
As a positive control, the fibronectin peptide described by Wayner was synthesized, conjugated to carrier protein, and tested for cell adhesion in parallel with SEQ ID NO. 1 (CGGEILDVPST, SEQ ID No. 2). Both peptide conjugates were exposed to the plastic at a concentration of 3 µg/mL. […] Adhesion was not affected by an antibody against β2 integrin (IOT18), a distinct cell adhesion molecule that is also expressed on the surface of Jurkat cells. Thus, like peptide SEQ ID NO. 2, peptide SEQ ID NO. 1 interacts with Jurkat in an α4 integrin-specific fashion.

T1 sequence (P13612 34-1032): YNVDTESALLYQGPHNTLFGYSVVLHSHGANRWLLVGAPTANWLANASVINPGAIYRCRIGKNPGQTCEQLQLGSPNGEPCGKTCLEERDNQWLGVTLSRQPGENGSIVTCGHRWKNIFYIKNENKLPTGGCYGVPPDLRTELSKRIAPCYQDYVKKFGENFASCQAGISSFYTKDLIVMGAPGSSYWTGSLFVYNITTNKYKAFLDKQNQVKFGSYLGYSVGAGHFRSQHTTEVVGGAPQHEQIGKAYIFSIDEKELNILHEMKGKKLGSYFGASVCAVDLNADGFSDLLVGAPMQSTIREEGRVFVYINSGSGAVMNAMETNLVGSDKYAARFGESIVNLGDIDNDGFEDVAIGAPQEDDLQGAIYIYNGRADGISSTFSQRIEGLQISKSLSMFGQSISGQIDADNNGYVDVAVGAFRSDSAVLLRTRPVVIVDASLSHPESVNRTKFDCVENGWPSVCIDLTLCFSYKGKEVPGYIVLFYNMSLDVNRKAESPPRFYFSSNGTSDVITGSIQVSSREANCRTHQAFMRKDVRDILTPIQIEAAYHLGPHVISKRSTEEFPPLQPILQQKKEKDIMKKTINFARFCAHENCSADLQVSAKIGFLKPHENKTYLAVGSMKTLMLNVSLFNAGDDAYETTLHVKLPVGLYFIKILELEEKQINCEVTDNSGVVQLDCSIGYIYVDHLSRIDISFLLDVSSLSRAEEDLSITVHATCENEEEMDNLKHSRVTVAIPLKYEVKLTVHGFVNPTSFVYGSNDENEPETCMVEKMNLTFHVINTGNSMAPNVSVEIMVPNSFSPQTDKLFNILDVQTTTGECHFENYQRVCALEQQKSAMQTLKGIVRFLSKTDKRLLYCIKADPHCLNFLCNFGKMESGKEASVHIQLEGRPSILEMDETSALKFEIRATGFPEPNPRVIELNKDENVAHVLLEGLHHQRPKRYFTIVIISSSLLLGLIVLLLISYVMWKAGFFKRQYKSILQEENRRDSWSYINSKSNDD
T1 sequence (P05556 21-798): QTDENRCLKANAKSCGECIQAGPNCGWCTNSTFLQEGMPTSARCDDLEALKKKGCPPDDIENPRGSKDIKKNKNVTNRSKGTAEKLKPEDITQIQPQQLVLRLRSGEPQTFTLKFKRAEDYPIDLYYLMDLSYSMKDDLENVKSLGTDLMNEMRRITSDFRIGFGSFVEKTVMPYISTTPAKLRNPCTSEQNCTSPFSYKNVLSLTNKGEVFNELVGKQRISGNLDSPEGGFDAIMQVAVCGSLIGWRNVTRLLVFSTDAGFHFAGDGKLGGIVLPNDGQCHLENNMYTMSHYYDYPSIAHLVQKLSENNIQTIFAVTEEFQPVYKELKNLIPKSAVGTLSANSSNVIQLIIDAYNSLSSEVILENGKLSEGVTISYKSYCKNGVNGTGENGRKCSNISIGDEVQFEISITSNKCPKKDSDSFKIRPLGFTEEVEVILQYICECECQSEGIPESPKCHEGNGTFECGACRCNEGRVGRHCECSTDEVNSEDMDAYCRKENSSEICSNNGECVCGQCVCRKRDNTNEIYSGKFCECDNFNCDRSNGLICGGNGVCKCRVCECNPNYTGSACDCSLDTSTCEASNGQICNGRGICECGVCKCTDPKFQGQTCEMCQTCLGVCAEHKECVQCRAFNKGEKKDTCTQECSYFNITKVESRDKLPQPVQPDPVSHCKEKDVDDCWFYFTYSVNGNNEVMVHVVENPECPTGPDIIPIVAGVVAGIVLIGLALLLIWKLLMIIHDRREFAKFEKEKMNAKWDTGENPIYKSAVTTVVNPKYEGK
T2 sequence (P13612 34-1032): as the sequence (P13612 34-1032) above
T2 sequence (P05556 21-798): as the sequence (P05556 21-798) above

adhesion of Jurkat cells to immobilized peptide conjugate (VLA-4 integrin) | Compound | inhibition of interaction of sVCAM-1-IgG with Jurkat cells (VLA-4; result in words) | other results
bound equally well | CGGEGYYGNYGVYA [SEQ ID No. 1] |  | 
bound equally well | CGGEILDVPST [SEQ ID No. 2, fibronectin peptide described by Wayner, conjugated to carrier protein; positive control, reference compound] |  | 

More lines, now with the values behind:

Compound | adhesion of Jurkat cells to immobilized peptide conjugate (VLA-4 integrin) | inhibition of interaction of sVCAM-1-IgG with Jurkat cells (VLA-4; result in words) | other results
CC[C@H](C)[C@@H]1NC(=O)[C@H](CCC(N)=O)NC(=O)[C@H]([C@@H](C)O)NC(=O)[C@H](CCCNC(=N)N)NC(=O)[C@@H](N)CSSC[C@@H](C(=O)O)NC(=O)[C@H](CO)NC(=O)[C@H](CC(=O)O)NC1=O [SEQ ID No. 35] (H-CRTQIDSC-OH; disulfide 1-8) |  |  | inhibitory activity compared with parent or linear peptide (VLA-4; result in words, relative to SEQ ID No. 4 (Nos. 27, 17) or SEQ ID No. 34 (No. 35)): more active than the linear peptide
STLTMNPVSF [SEQ ID No. 40] |  | inhibitory; also recorded: quite active in a linear form | 
NC(=O)C[C@@H]1NC(=O)CNC(=O)[C@H](Cc2ccccc2)NC(=O)CNC(=O)[C@@H](N)CSSC[C@@H](C(=O)O)NC(=O)[C@H](Cc2ccc(O)cc2)NC(=O)[C@H](CO)NC(=O)[C@H](Cc2c[nH]cn2)NC(=O)[C@H](CCC(=O)O)NC1=O [SEQ ID No. 31] (H-CGFGNEHSYC-OH; disulfide 1-10) |  | particularly good inhibition | 
NC(=O)C[C@@H]1NC(=O)CNC(=O)[C@H](Cc2ccccc2)NC(=O)[C@H](Cc2ccc(O)cc2)NC(=O)[C@@H](N)CSSC[C@@H](C(=O)O)NC(=O)[C@H](Cc2ccc(O)cc2)NC(=O)[C@H](CO)NC(=O)[C@H](Cc2c[nH]cn2)NC(=O)[C@H](CCC(=O)O)NC1=O [SEQ ID No. 63] (H-CYFGNEHSYC-OH; disulfide 1-10) |  |  | IC50 (VLA-4; per Example 6: inhibition of Jurkat interaction with sVCAM-1-IgG, FACS, in the presence of Mn+2 and 15/7): ≤ 50 µM
